According to US20130252818A1, “AMORPHOUS BIOINORGANIC IONIC LIQUID COMPOSITIONS COMPRISING AGRICULTURAL SUBSTANCES” (priority 2012, published 2013):
Where a name gives a salt, the structure may show the parent alone. Read-outs that look alike come from different tables or passages of the source.

Legend:
[1] = Solubility of the IL in solvents
[2] = Thermogravimetric analysis (TGA), decomposition temperature; format: physicochemical
Method: Melting points of all purchased materials were determined in a capillary tube using a MeI-Temp apparatus (Barnstead/Thermo Scientific). NMR data sets were collected on a 300 MHz Bruker instrument using sample concentrations of 50 mM. Infrared spectra were measured using an Avatar 360 FT-IR ESP (ThermoElectron-Nicolet, Waltham, Mass.) equipped with a Smart DuraSampllR horizontal attenuated total reflectance (HATR) accessory. Raman spectra were measured using a Thermo-Nicolet 470 FTIR with Nd:YAG laser excitation and HgCdTe detector. Viscosity was measured on 1 mL samples with a Viscolab 3000 viscometer (Cambridge Viscosity, Medford, Mass.). Samples were heated to 90° C., except when otherwise specified, and viscosity was recorded in 2 degree increments between 50 and 90° C. with 8 min equilibration at each temperature. Thermal characterization was carried out using a Q100 DSC and a Q500 TGA (both from TA Instruments, New Castle, Del.). DSC was performed using a 5-10 mg sample in a 40 μL aluminum crucible sealed in the glovebox. A temperature range from −60 to 150° C. was scanned twice, at ramp rates of 5° C./min and 10° C./min. TGA was performed under N2 atmosphere over a temperature range from 25-800° C. with a ramp rate of 20° C. per minute and a sample size of 10 mg.

[3] = Storage under Ar, observed over 6 months for crystalline domains; format: physicochemical; settings: stored under Ar
[4] = tested on: Pseudomonas aeruginosa biofilms; test: Challenge of established biofilms with test compounds, CFU count; format: cell-based; settings: 72 h biofilm, 6 h challenge
Staphylococcus aureus = test: Biofilm growth on IL-coated culture plates; format: cell-based; settings: wells coated with 100 uL IL, 72 h
Method: (§1) A second example of clear, colorless antimicrobial films formed by compositions described herein was shown with an assay that involved coating culture plates with IL and observing the biofilm growth on the coated surface. […] Aliquots of 100 μL of either a Staphylococcus aureus culture, an E. coli culture, or a Pseudomonas aeruginosa culture were added to each coated well, the plate was fed with fresh media every 24 h, and cells were counted after 72 h, as described above. The number of cells in the treated wells was below the limit of detection of the assay of 1000 cfu/mL, as compared with normal cell counts for the LB control wells, indicating high antimicrobial efficacy of the IL coating. Because bacteria colonize a surface prior to barnacles and other organisms, proof of antibacterial effects is key to showing anti-biofouling potential in aquatic environments.

Pseudomonas aeruginosa = test: Biofilm growth on IL-coated culture plates; format: cell-based; settings: wells coated with 100 uL IL, 72 h
Method: as §1

E. coli = test: Biofilm growth on IL-coated culture plates; format: cell-based; settings: wells coated with 100 uL IL, 72 h
Method: as §1

[5] = Shelf life estimate by model-free isoconversional kinetic analysis of TGA data; format: physicochemical
Method: Zinc(II) chloride (273 mg, 2 mmol) was added to a scintillation vial that had been heated, then cooled under vacuum and charged with dry argon. Phenoxybenzamine hydrochloride (340.3 mg, 1 mmol) was added to the vial with a stir bar and the mixture was degassed with stirring at 60° C. The vial was filled with argon, sealed with a cap, and stirred for 24 h at 80° C. to produce a clear, colorless glass. […] NMR spectra for ^1H and ^13C were obtained in d6-acetone. […] Spectra of phenoxybenzamine-HCl were performed with 0, 0.25, 0.5, 1.0, 1.5, 2.0, and 5.0 molar equivalents of ZnCl2 to observe this effect. Thermal decomposition after a 3 h incubation of the IL at a constant 120° C. was 2.7% of the starting mass. In contrast, the phenoxybenzamine hydrochloride starting material loses 38% of its mass after a similar incubation. The IL was soluble (>1 mM) in acetone, water and phosphate buffered to pH 6.0. The IL was insoluble (<1 mM) in toluene and tetrahydrofuran. […] Model-free isoconversional kinetic analysis (for more detail, see: Doyle, C. D., J. Appl. Polym. Sci. 1962, 6:639-642; and Long, G. T. et al., J. Pharm. Sci. 2002, 91:800-809) of TGA data was used to estimate increases in shelf life due to IL formulation for phenoxybenzamine hydrochloride and phenoxybenzamine-HCl—(ZnCl2)2. The onset of mass loss indicates loss of HCl during cyclization of the 2-chloroethylamine group, the most common decomposition pathway for phenoxybenzamine hydrochloride (for more detail, see: Adams, W. P. et al., Int. J. Pharm. 1985, 25:293-312). Formulation as an ionic liquid improves the shelf life (time to reach 5% decomposition) of solid phenoxybenzamine hydrochloride at 20° C. by 7.7-fold to 15.8 years. […] The manufacturer's shelf life for 10 mg phenoxybenzamine hydrochloride tablets is 2 years, or 730 days, and the calculated value for solid phenoxybenzamine hydrochloride (5% decay at 20° C.) was 750 days (2.05 years), indicating good agreement of the calculation with actual shelf life. The most common decomposition pathway for phenoxybenzamine hydrochloride is loss of hydrochloride during cyclization of the 2-chloroethylamine group (for more detail, see: Adams, W. P. et al., Int. J. Pharm. 1985, 25:293-312) and we expect this is the earliest mass loss observed by TGA. The IL phenoxybenzamine-HCl—(ZnCl2)2 is a stabilized, amorphous formulation with shelf life greater than that of the most common crystalline form.

[6] = Solubility at 1 mM in unbuffered water by eye and UV-Vis after filtration; settings: for A268 of the filtrate: 0.45 μm syringe filter
Method: Solubility of phenoxybenzamine hydrochloride and phenoxybenzamine-HCl—(ZnCl2)2 at 1 mM in unbuffered water (pH 6.5) was evaluated by eye and by UV-Vis spectroscopy after filtration through a 0.45 μm syringe filter.

[7] = format: physicochemical; settings: 3 h incubation at constant 120° C.
[8] = TGA under N2, ramp 20° C. per minute
[9] = solid, 20° C., calculated from TGA kinetics
[10] = 1 mM in unbuffered water (pH 6.5)

## CNC(=C[N+](=O)[O-])NCCSCc1ccc(CN(C)C)o1.Cl.[Cl][Zn][Cl].[Cl][Zn][Cl]
[1]; acetone
  Solubility: > 1000 µM
[2]
  ΔTdec (increase in decomposition temperature relative to HCl starting material): +14.1 °C
[3]
  Appearance of crystalline domains on storage: no crystalline domains appeared

## CCCC[N+]1(C)CCCC1.O=S(=O)([N-]S(=O)(=O)C(F)(F)F)C(F)(F)F [BMP-NTf2, 1-butyl-1-methypyrrolidinium bistriflimide]
[4]; neat
  Cell count remaining in biofilm: 2×10^5

## CC(C)(C)CC(C)(C)c1ccc(OCCOCC[N+](C)(C)Cc2ccccc2)cc1 [Benzethonium-Cl—(ZnCl2)2]
Staphylococcus aureus
  Number of cells in treated wells: < 1000 cfu/mL
Pseudomonas aeruginosa
  Number of cells in treated wells: < 1000 cfu/mL
E. coli
  Number of cells in treated wells: < 1000 cfu/mL

## CN1[C@@H]2CC[C@H]1CC(OC(=O)C(O)c1ccccc1)C2 (stereo partly shown) [Homatropine-HCl—(ZnCl2)2]
[2]
  Tdec (decomposition temperature): 274.5 °C
  ΔTdec (increase in decomposition temperature relative to HCl starting material): +7.8 °C
[3]
  Appearance of crystalline domains on storage: no crystalline domains appeared

## CN(C)CCCN1c2ccccc2CCc2ccccc21.Cl.[Cl][Zn][Cl].[Cl][Zn][Cl] [Imipramine-HCl—(ZnCl2)2]
[2]
  ΔTdec (increase in decomposition temperature relative to HCl starting material): +21.4 °C
[2]; [8]
  Tdec (decomposition temperature): 267.2 °C
[3]
  Appearance of crystalline domains on storage: no crystalline domains appeared

## [Cl-].[Na+] [NaCl]
[4]; 5 M in LB
  Cell count remaining in biofilm: 1×10^6 cells

## CC(COc1ccccc1)N(CCCl)Cc1ccccc1.Cl.[Cl][Zn][Cl].[Cl][Zn][Cl] (stereo not shown) [Phenoxybenzamine-HCl—(ZnCl2)2]
[1]; acetone
  Solubility: > 1000 µM
[1]; phosphate buffered to pH 6.0
  Solubility: > 1000 µM
[1]; tetrahydrofuran
  Solubility: < 1000 µM
[1]; toluene
  Solubility: < 1000 µM
[1]; water
  Solubility: > 1000 µM
[5]
  Improvement of shelf life over standard formulation in syrup and propylene glycol (4-day refrigerator shelf life): 1500 fold
[5]; 20° C., time to 5% decomposition
  Improvement of shelf life over solid phenoxybenzamine hydrochloride: 7.7 fold
[5]; [9]
  Shelf life (time to reach 5% decomposition): 15.8 years
[6]; 1 mM (0.34 mg/mL) in unbuffered water (pH 6.5)
  Solubility evaluated by eye: completely dissolve
[6]; [10]
  A268 of the filtrate relative to phenoxybenzamine hydrochloride solution: 5 ×
  A268 of the filtrate: 1.56
[2]
  ΔTdec (increase in decomposition temperature relative to HCl starting material): +45.1 °C
[2]; [8]
  Tdec (decomposition temperature): 259.0 °C
[3]
  Appearance of crystalline domains on storage: no crystalline domains appeared

## [Cl-].[Cl-].[Zn+2] [ZnCl2, Zinc(II) chloride]
[4]; 1.8 M in LB
  Cell count remaining in biofilm: 4×10^5

## CC(C)(C)CC(C)(C)c1ccc(OCCOCC[N+](C)(C)Cc2ccccc2)cc1 [benzethonium chloride]
[4]; 78 mM in LB, precipitate impeded quantification
  Viable dispersed cell count (conservative estimate, some exposures): 5×10^4 cfu/mL

## CC(COc1ccccc1)N(CCCl)Cc1ccccc1 (stereo not shown) [phenoxybenzamine hydrochloride, reference compound]
[5]; [9]
  Shelf life (5% decay): 750 days
  Shelf life (time to reach 5% decomposition): 2.05 years
[7]
  Thermal decomposition, % of the starting mass lost: 38%
[6]; [10]
  A268 of the filtrate: 0.30

## Ethambutol-(HCl)2—(ZnCl2)2
[2]; [8]
  Tdec (decomposition temperature): 216.5 °C
[3]
  Appearance of crystalline domains on storage: no crystalline domains appeared

## Procainamide-HCl—(ZnCl2)2
[3]
  Appearance of crystalline domains on storage: no crystalline domains appeared
